From patent US11046715B2, “Boronic derivatives of hydroxamates as anticancer agents” (Xavier University of Louisiana, priority 2016, dated 2021) come the findings set out here.

What is called EC50 is the concentration that produces a half-maximal response.

Data set [1] has as its system HeLa: human epitheloid cervix carcinoma. The data set can be described thus: In vitro cytotoxicity / antiproliferation, HeLa. In kind it is cell-based. The procedure: (§1) The in vitro cytotoxicity of boronic derivatives of hydroxamates was tested against various cancer cell lines; the results are provided in Table 1.
For another data set, the system named is MCF-7 tumor xenograft. Put plainly: In vivo efficacy in MCF-7 tumor xenograft model in mice. The note with it: 10 mg/kg/day subcutaneous; for effect on tumor growth (in words): compared with vehicle group; for average tumor volume: day 15; for Tumor volume: day 24, MCF-7 xenograft mice.
The subject of data set [2] is MDA-MB-231: human breast adenocarcinoma. Put plainly: In vitro cytotoxicity / antiproliferation, MDA-MB-231. In kind it is cell-based. The note with it: MDA-MB-231, read-out: Antiproliferation activity (IC50).
Data set [3] relates to A549: human non-small-cell lung carcinoma. The data set can be described thus: In vitro cytotoxicity / antiproliferation, A549. The format is cell-based. How it is done: as §1
In data set [4] the test system is MCF-7: human breast adenocarcinoma. Put plainly: In vitro cytotoxicity / antiproliferation, MCF-7. In kind it is cell-based. The settings on record: MCF7. How it is done:
as §1

Data set [5] relates to SK-OV-3: human ovarian cancer. The data set can be described thus: In vitro cytotoxicity / antiproliferation, SK-OV-3. The format is cell-based.
Data set [6] deals with SK-MEL-28: human melanoma. Put plainly: In vitro cytotoxicity / antiproliferation, SK-MEL-28. In kind it is cell-based. The settings on record: SK-MEL-28, read-out: Antiproliferation activity (IC50).
The subject of data set [7] is NCI-H460: human non-small-cell lung cancer. The data set can be described thus: In vitro cytotoxicity / antiproliferation, NCI-H460. The note with it: NCI-H460, read-out: Antiproliferation activity (IC50). The format is cell-based.
The target in data set [8] is Histone deacetylase (HDAC). Put plainly: Histone deacetylase activity assay kit (Fluorometric) ab156064. In kind it is biochemical. The settings on record: 20 min incubation; read-out: HDAC inhibitory activity EC50.
Data set [9] is described as follows: In vivo pharmacokinetics in mice after intraperitoneal injection (plasma). The note with it: single dose 10 mg/kg IP. How it is done:
Pharmacokinetic studies of compound 3 in mice were conducted.

For the next data set, the system named is MDA-MB-231 cells. Put plainly: In vitro pharmacokinetics: concentrations in culture media after incubation with MDA-MB-231 cells. In kind it is in vitro ADME, human. The settings on record: 1-day incubation with MDA-MB-231 cells.
A short description of data set [10]: Concentration in tumor tissue of MCF-7 xenograft mice. In kind it is in vivo. The settings on record: after 24 days at 10 mg/kg/day subcutaneous.

The structures appear in SMILES notation. “And” between values parts separate entries of the source, which are not always exact repeats. Equal values may be shown once.

Turning to `O=C(/C=C/c1cccc(S(=O)(=O)Nc2ccccc2)c1)NO` [Belinostat, reference compound], the IC50 amounted to 0.0865 µM in data set [1], 0.0616 µM in data set [2], 0.0766 µM in data set [3] and 0.0964 µM in [4]. In the data set with MCF-7 tumor xenograft (24 days), the “TGI (inhibition of tumor growth)” value stood at 77.7%. Moreover, the “effect on tumor growth (in words)” value in the data set on MCF-7 tumor xenograft was “potent inhibitory activity against the growth of tumor”. Moreover, the average tumor volume in the data set on MCF-7 tumor xenograft was found to be 167 mm^3. Also, in the data set on MCF-7 tumor xenograft, the Tumor volume was 194 mm^3 and 193.68 ± 29.79 mm^3.

As to `Cn1c(CCCC(=O)O)nc2cc(N(CCCl)CCCl)ccc21` [Bendamustine, reference compound], the IC50 in data set [5] was 33.4 µM; in data set [2], 37.5 µM; in data set [6] it was 149 µM; in data set [7], 45.3 µM.

As to `CC1(C)OB(c2ccc(CONC(=O)CCCCCCC(=O)Nc3ccccc3)cc2)OC1(C)C` [Compound 1], the results for the IC50 in data set [5], in data set [2] and in [6] were 55.2 µM, 423 µM and 13.5 µM, respectively.

`CC1(C)OB(c2ccc(CONC(=O)/C=C/c3cccc(S(=O)(=O)Nc4ccccc4)c3)cc2)OC1(C)C` [Compound 3]: the IC50 in data set [1] amounted to 0.273 µM; in [2], 0.303 µM; in data set [6], 0.678 µM; in [3] it was 0.453 µM; in data set [7], 0.43 µM; in [4] it was 1.46 µM. Also, the “T/C (tumor volume ratio)” value in the data set on MCF-7 tumor xenograft (24 days) is 14.6%. Further, the “TGI (inhibition of tumor growth)” value in the data set with MCF-7 tumor xenograft (24 days) is 85.3%. Also, the “effect on tumor growth (in words)” value is recorded as “resulted in tumor remission” in the data set on MCF-7 tumor xenograft and “potent inhibitory activity against the growth of tumor” in the data set with MCF-7 tumor xenograft (listed as compound 3). Moreover, the average tumor volume with MCF-7 tumor xenograft is recorded as 153 mm^3. In the data set on MCF-7 tumor xenograft, this compound showed a Tumor volume of 127 mm^3. In addition, the 50% effective concentration (EC50) in data set [8] is 0.35 µM. Also, in [9], the “maximum concentration of compound 95 relative to maximum concentration achieved by belinostat” value was “about forty times”. Moreover, in the data set with MDA-MB-231 cells, the “conversion of compound 3 in culture media (in words)” value was “completely converted to compound 95 and partially to belinostat”. In [10], the “concentration of belinostat and compound 95 added together in tumor tissue, relative to belinostat group” value was “five times greater”.

As to `CCN(CC)Cc1ccc2cc(COC(=O)Nc3ccc(C(=O)NOCc4ccc(B5OC(C)(C)C(C)(C)O5)cc4)cc3)ccc2c1` [Compound 4], the IC50 was found to be 0.296 µM in data set [5], 0.321 µM in data set [2], 0.377 µM in data set [6] and 0.154 µM in data set [7].

For the compound `CN(C)Cc1ccc(S(=O)(=O)n2ccc(/C=C/C(=O)NOCc3ccc(B4OC(C)(C)C(C)(C)O4)cc3)c2)cc1` [Compound 5], the IC50 in data set [1], in data set [2] and in data set [3] was greater than 10 µM in each case.

`Cn1c(CCCC(=O)NOCc2ccc(B3OC(C)(C)C(C)(C)O3)cc2)nc2cc(N(CCCl)CCCl)ccc21` [Compound 7]: the IC50 was found to be 1.84 µM in data set [5], 3.33 µM in data set [2], 0.373 µM in [6] and 1.22 µM in data set [7].

For the compound `COc1ccc(C(=O)NOCc2ccc(B3OC(C)(C)C(C)(C)O3)cc2)cc1` [Compound 10], the IC50 in data set [1], in data set [2] and in data set [3] was greater than 10 µM each time.

Take `CC1=C(CC(=O)NOCc2ccc(B3OC(C)(C)C(C)(C)O3)cc2)c2cc(F)ccc2/C1=C/c1ccc([S+](C)[O-])cc1` (stereo not drawn) [Compound 11]: the IC50 in [1] came to 277 µM; in data set [5] it was 19.4 µM; in data set [2], 20.1 µM; in data set [6] it was 77.4 µM; in data set [3], 696 µM; in data set [7], 1.01 µM.

Consider `COc1cc(C(=O)NOCc2ccc(B3OC(C)(C)C(C)(C)O3)cc2)cc(OC)c1OC` [Compound 13], for which the IC50 in data set [1], in data set [2] and in data set [3] was greater than 10 µM throughout.

`CC(C)Cc1ccc(C(C)C(=O)NOCc2ccc(B3OC(C)(C)C(C)(C)O3)cc2)cc1` (stereo not drawn) [Compound 14]: the IC50 in [1], in data set [2] and in data set [3] was greater than 10 µM in each case.

Consider `CC1(C)OB(c2ccc(CONC(=O)c3cc4ccccc4oc3=O)cc2)OC1(C)C` [Compound 15], for which the IC50 in data set [1], in data set [2] and in data set [3] was greater than 10 µM throughout.

As to `COc1ccc(C(=O)NOCc2ccc(B3OC(C)(C)C(C)(C)O3)cc2)cc1OC` [Compound 16], the IC50 in data set [1], in [2] and in data set [3] was greater than 10 µM each time.

For `CCN(CC)Cc1ccc2cc(COC(=O)Nc3ccc(C(=O)NO)cc3)ccc2c1` [Givinostat, reference compound], the IC50 was 0.119 µM in [2], 0.0913 µM in [6] and 0.103 µM in data set [7].

On to `CC1=C(CC(=O)O)c2cc(F)ccc2/C1=C\c1ccc([S+](C)[O-])cc1` (stereo not drawn) [Sulindac, reference compound], for which the IC50 stood at 458 µM in data set [1]; 109 µM in [5]; 1400 µM in [2]; 1400 µM in [6]; 20400 µM in data set [3]; 41.9 µM in data set [7].
